Results reported in patent US20230365563A1, “QUINAZOLINE COMPOUND AND APPLICATION THEREOF” (SHANGHAI PHARMACEUTICALS HOLDING CO., LTD., priority 2020, published 2023).

Molecular target: T1, KRAS-G12D and SOS1 (Homo sapiens, UniProt P01116, G12D)
T1 construct: purchased
Test: Inhibition of KRAS-G12D/SOS1 binding (Cisbio binding kit, 665/615 ratio), Effect Embodiment A
Settings: read-out: GTP-KRAS-G12D:SOS1 IC50
Protocol: Similarly, the first dilution point of the compound to be tested was its storage solution, and the solution was 3-fold diluted, with 11+0 points of dilution. Echo was used to transfer 0.2 μL gradient diluted solution of the compounds into a 384-well plate, with 2 duplicated wells for each compound, and the final concentration of DMSO was 1%. The solution was centrifuged for 1 min at 1000 rpm/min.
IC50 of the compounds was fitted by Graphpad Prism 8 nonlinear regression equation: […]
The IC50 (half inhibitory concentration) of the compound was obtained by using the following nonlinear fitting formula: […]

T1 sequence (P01116 1-188 isoform P01116-2 G12D): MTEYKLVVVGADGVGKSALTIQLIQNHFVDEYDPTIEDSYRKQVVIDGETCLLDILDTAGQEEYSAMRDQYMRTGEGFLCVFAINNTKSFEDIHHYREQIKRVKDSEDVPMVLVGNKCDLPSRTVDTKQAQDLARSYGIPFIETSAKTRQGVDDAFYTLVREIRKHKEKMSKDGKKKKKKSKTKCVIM

Row | SMILES | IC50
1 | CN(C)C1CN(c2nc(N3CCNCC3)c3cc(Cl)c(-c4cc(O)cc5ccccc45)c(F)c3n2)C1 (single isomer, unassigned) [Comparative embodiment b, reference compound] | 83.4 µM
2 | CN(C)C1CN(c2nc(N3C[C@H]4CC[C@@H]3CN4)c3cc(Cl)c(-c4cc(O)cc5ccccc45)c(F)c3n2)C1 (single isomer, unassigned) [Compound 1a, (R or S)-4-(4-((1R,4R)-2,5-diazabicyclo[2.2.2]octan-2-yl)-6-chloro-2-(3-(dimethylamino)azetidin-1-yl)-8-fluoroquinazolin-7-yl)naphthalen-2-ol] | 6.44 µM
3 | CN(C)C1CN(c2nc(N3C[C@H]4CC[C@@H]3CN4)c3cc(Cl)c(-c4cc(O)cc5ccccc45)c(F)c3n2)C1 (single isomer, unassigned) [Compound 1b, (S or R)-4-(4-((1R,4R)-2,5-diazabicyclo[2.2.2]octan-2-yl)-6-chloro-2-(3-(dimethylamino)azetidin-1-yl)-8-fluoroquinazolin-7-yl)naphthalen-2-ol] | 31.9 µM
4 | CN(C)C1CN(c2nc(N3C[C@H]4C[C@@H]3CN4)c3cc(Cl)c(-c4cc(O)cc5ccccc45)c(F)c3n2)C1 (single isomer, unassigned) [Compound 3a, (R or S)-4-(4-((1R,4R)-2,5-diazabicyclo [2.2.1]heptan-2-yl)-6-chloro-2-(3-(dimethylamino)azetidin-1-yl)-8-fluoro-quinazolin-7-yl)naphthalen-2-ol] | 1.36 µM
5 | CN(C)C1CN(c2nc(N3C[C@@H]4CC[C@H]3CN4)c3cc(Cl)c(-c4cc(O)cc5ccccc45)c(F)c3n2)C1 (single isomer, unassigned) [Compound 4b, (S or R)-4-(4-((1S,4S)-2,5-diazabicyclo [2.2.2]octan-2-yl)-6-chloro-2-(3-(dimethylamino)azetidin-1-yl)-8-fluoro-quinazolin-7-yl)naphthalen-2-ol] | 4.59 µM
6 | CN(C)C1CN(c2nc(N3C[C@H]4CC[C@@H](C3)N4)c3cc(Cl)c(-c4cc(O)cc5ccccc45)c(F)c3n2)C1 (single isomer, unassigned) [Compound 5b, (S or R)-4-(4-((1R,5S)-3,8 diazabicyclo [3.2.1]octan-3-yl)-6-chloro-2-(3-(dimethylamino)azetidin-1-yl)-8-fluoro-quinazolin-7-yl)naphthalen-2-ol] | 63.3 µM
7 | CN(C)C1CN(c2nc(N3CC4(CCNC4)C3)c3cc(Cl)c(-c4cc(O)cc5ccccc45)c(F)c3n2)C1 (single isomer, unassigned) [Compound 8b, (S or R)-4-(6-chloro-2-(3-(dimethylamino)azetidin-1-yl)-8-fluoro-4-(2,6-diazaspiro[3.4]octan-2-yl)quinazolin-7-yl)naphthalen-2-ol] | 71 µM
8 | CN(C)C1CN(c2nc(N3CC(N(C)C)C3)c3cc(Cl)c(-c4cc(O)cc5ccccc45)c(F)c3n2)C1 (single isomer, unassigned) [Compound 9a, (R or S)-4-(6-chloro-2,4-bis(3-(dimethylamino)azetidin-1-yl)-8-fluoro-7-yl)naphthalen-2-ol] | 81.6 µM
9 | CN(C)C1CN(c2nc(N3CC(N(C)C)C3)c3cc(Cl)c(-c4cc(O)cc5ccccc45)c(F)c3n2)C1 (single isomer, unassigned) [Compound 9b, (S or R)-4-(6-chloro-2,4-bis(3-(dimethylamino)azetidin-1-yl)-8-fluoro-7-yl)naphthalen-2-ol] | > 200 µM
10 | CN(C)C1CN(c2nc(N3CC4(CCNCC4)C3)c3cc(Cl)c(-c4cc(O)cc5ccccc45)c(F)c3n2)C1 (single isomer, unassigned) [Compound 10b, (S or R)-4-(6-chloro-2-(3-(dimethylamino)azetidin-1-yl)-8-fluoro-4-(2,7-diazaspiro[3.5 5]nonan-2-yl)quinazolin-7-yl)naphthalen-2-ol] | 65.1 µM
11 | CN(C)C1CN(c2nc(N3CCC4(CC3)CNC4)c3cc(Cl)c(-c4cc(O)cc5ccccc45)c(F)c3n2)C1 (single isomer, unassigned) [Compound 11a, (R or S)-4-(6-chloro-2-(3-(dimethylamino)azetidin-1-yl)-8-fluoro-4-(2,7-diazaspiro[3.5]nonan-7-yl)quinazolin-7-yl)naphthalen-2-ol] | 1.53 µM
12 | CN(C)C1CN(c2nc(N3CCC4(CCCN4)CC3)c3cc(Cl)c(-c4cc(O)cc5ccccc45)c(F)c3n2)C1 (single isomer, unassigned) [Compound 12a, (R or S)-4-(6-chloro-2-(3-(dimethylamino)azetidin-1-yl)-8-fluoro-4-(1,8-diazaspiro[4.5]decan-8-yl)quinazolin-7-yl)naphthalen-2-ol] | 7.12 µM
13 | CN(C)C1CN(c2nc(N3C[C@H]4CNC[C@H]4C3)c3cc(Cl)c(-c4cc(O)cc5ccccc45)c(F)c3n2)C1 (single isomer, unassigned) [Compound 13a, (R or S)-4-(6-chloro-2-(3-(dimethylamino)azetidin-1-yl)-8-fluoro-4-((3aR,6aS)-hexahydro-pyrrolo[3,4-c]pyrrol-2 (1H)-yl)quinazolin-7-yl)naphthalen-2-ol] | 2.24 µM
14 | CN(C)C1CN(c2nc(N3CC4CNCC4C3)c3cc(Cl)c(-c4cc(O)cc5ccccc45)c(F)c3n2)C1 (single isomer, unassigned) [Compound 14c, (R or S)-4-(6-chloro-2-(3-(dimethylamino)azetidin-1-yl)-8-fluoro-4-((3aR,6aR or 3aS,6aS)-hexahydro-pyrrolo[3,4-c]pyrrol-2(1H)-yl)quinazolin-7-yl)naphthalen-2-ol] | 9.49 µM
15 | CN(C)C1CN(c2nc(N3CC4CNCC4C3)c3cc(Cl)c(-c4cc(O)cc5ccccc45)c(F)c3n2)C1 (single isomer, unassigned) [Compound 14d, (S or R)-4-(6-chloro-2-(3-(dimethylamino)azetidin-1-yl)-8-fluoro-4-((3aR,6aR or 3aS,6aS)-hexahydro-pyrrolo[3,4-c]pyrrol-2(1H)-yl)quinazolin-7-yl)naphthalen-2-ol] | 56.7 µM
16 | CN(CCN)c1nc(N2CC(N(C)C)C2)nc2c(F)c(-c3cc(O)cc4ccccc34)c(Cl)cc12 (single isomer, unassigned) [Compound 15a, (R or S)-4-(4((2-aminoethyl) (methyl)-amino)-6-chloro-2-(3-(dimethylamino)azetidin-1-yl)-8-fluoroquinazolin-7-yl)naphthalen-2-ol] | 1.35 µM
17 | CN(CCN)c1nc(N2CC(N(C)C)C2)nc2c(F)c(-c3cc(O)cc4ccccc34)c(Cl)cc12 (single isomer, unassigned) [Compound 15b, (S or R)-4-(4((2-aminoethyl) (methyl)-amino)-6-chloro-2-(3-(dimethylamino)azetidin-1-yl)-8-fluoroquinazolin-7-yl)naphthalen-2-ol] | 52.7 µM
18 | CNCCN(C)c1nc(N2CC(N(C)C)C2)nc2c(F)c(-c3cc(O)cc4ccccc34)c(Cl)cc12 (single isomer, unassigned) [Compound 16a, (R or S)-4-(6-chloro-2-(3-(dimethylamino)azetidin-1-yl)-8-fluoro-4-(methyl(2-(methylamino)ethyl)amino)quinazolin-7-yl)naphthalen-2-ol] | 3.49 µM
19 | CNCCN(C)c1nc(N2CC(N(C)C)C2)nc2c(F)c(-c3cc(O)cc4ccccc34)c(Cl)cc12 (single isomer, unassigned) [Compound 16b, (S or R)-4-(6-chloro-2-(3-(dimethylamino)azetidin-1-yl)-8-fluoro-4-(methyl(2-(methylamino)ethyl)amino)quinazolin-7-yl)naphthalen-2-ol] | 83.4 µM
